{
  "source": "paper PMC10698032",
  "about": "“A monoacylglycerol lipase inhibitor showing therapeutic efficacy in mice without central side effects or dependence” (Nature Communications, 2023)",
  "key": {"[1]": {"target": "T1, MAGL (monoacylglycerol lipase) (Homo sapiens, UniProt Q99685)", "T1 construct": "gene MGLL; full-length, C-terminal FLAG-tag, HEK293T membrane fractions", "T1 sequence (Q99685 whole entry)": "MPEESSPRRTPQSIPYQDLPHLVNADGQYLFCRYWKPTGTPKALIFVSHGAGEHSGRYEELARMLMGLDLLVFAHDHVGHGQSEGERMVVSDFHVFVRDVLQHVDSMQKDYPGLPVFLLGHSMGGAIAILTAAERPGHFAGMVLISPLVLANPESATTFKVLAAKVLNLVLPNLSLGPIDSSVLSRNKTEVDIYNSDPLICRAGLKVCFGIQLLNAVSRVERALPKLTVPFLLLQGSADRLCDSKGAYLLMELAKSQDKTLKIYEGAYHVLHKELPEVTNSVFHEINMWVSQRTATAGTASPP", "test": "fluorescent 2-AG hydrolysis assay on human MAGL-overexpressing HEK293T membranes", "type": "biochemical"}, "[2]": {"target": "T2, MAGL (monoacylglycerol lipase) (Mus musculus, UniProt O35678)", "T2 sequence (O35678 1-303)": "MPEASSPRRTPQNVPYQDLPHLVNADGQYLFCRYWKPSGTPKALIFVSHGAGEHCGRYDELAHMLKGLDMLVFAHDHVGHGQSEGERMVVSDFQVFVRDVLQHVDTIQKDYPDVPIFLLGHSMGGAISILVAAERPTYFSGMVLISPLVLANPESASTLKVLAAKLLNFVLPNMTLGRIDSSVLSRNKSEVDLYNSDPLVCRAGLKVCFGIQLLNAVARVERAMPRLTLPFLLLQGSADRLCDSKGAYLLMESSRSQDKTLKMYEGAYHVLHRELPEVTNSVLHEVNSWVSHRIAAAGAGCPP", "test": "gel-based competitive ABPP with FP-TAMRA at […]", "type": "cell-based", "parameters": "gene Mgll; endogenous, mouse brain membrane proteome", "conditions": "read-out: % inhibition at 10 μM"}, "[3]": {"target": "T2, MAGL (monoacylglycerol lipase)", "test": "biochemical", "parameters": "gene Mgll; endogenous, mouse brain membrane proteome; gel-based competitive ABPP with FP-TAMRA on mouse brain membrane proteome, MAGL labelling, n=1", "conditions": "read-out: Inhibition ABPP assay (%)", "text": "Subsequently, the qualified hits underwent testing in an orthogonal gel-based competitive activity-based protein profiling (ABPP) assay, a powerful technique for obtaining an initial selectivity profile of these compounds. The assay employed fluorophosphonate-tetramethylrhodamine (FP-TAMRA), a broad-spectrum activity-based probe designed to target a wide range of serine hydrolases, including endocannabinoid hydrolases like MAGL, fatty acid amide hydrolase (FAAH), and alpha/beta hydrolase domain-containing protein 6 (ABHD6)[30],[31]. […] This observation could indicate potential species differences or a short residence time for the target. A correlation between inhibitor potency in the primary substrate-based assay and the orthogonal ABPP assay was, however, noted for the majority of compounds (Fig. 1f). […] This characteristic positions it as a promising candidate for further optimization. 71 Figure S1 72 73 74 75 76 Supplementary Figure 1 – Orthogonal competitive ABPP assay for hit validation and selectivity assessment. 77 ABPP was performed on mouse brain membrane proteome using FP-TAMRA. Proteome was pre-incubated with 78 inhibitor (10 µM, 30 min), followed by incubation with FP-TAMRA (100 nM, 10 min). JZL184 was included as 79 positive control on all gels. […] Physicochemical properties (cLogP, tPSA, HBD, HBA) were calculated using ChemDraw Professional 31 16.0."}},
  "data": [
    {"smiles": "CCOC(=O)C[S+]([O-])c1ccc(C(=O)N2CCN(c3cccc(C)c3)C(C)C2)cc1[N+](=O)[O-]", "note": "(stereo not drawn) [compound 1, ethyl 2-((4-(3-methyl-4-(m-tolyl)piperazine-1-carbonyl)-2-nitrophenyl)sulfinyl)acetate]", "values": [
      {"measurement": "IC50", "setting": "[1]", "result": 0.398, "unit": "µM"},
      {"measurement": "inhibition at 10 µM", "setting": "[2]", "result": "> 25", "unit": "%"},
      {"measurement": "inhibition at 10 µM", "setting": "[3]", "result": 86, "unit": "%"}
    ]}
  ]
}
